Test results published in patent US10626081B2, “Farnesoid X receptor agonists and uses thereof” (Metacrine, Inc., priority 2015, dated 2020).

Key:
FXR [1] = molecular target: T1, FXR (Homo sapiens, UniProt Q96RI1); assay: In Vitro FXR Assay (PGL3): luciferase reporter in transfected CV-1 cells; assay type: cell-based; conditions: CV-1 cells transfected with hFXR, hRXR, PGL3-ECRE*6-luc; 18 h incubation; luminescence
T1 construct: expressed in transfected cells; host or cells: CV-1 cells
T1 sequence (Q96RI1 1-486): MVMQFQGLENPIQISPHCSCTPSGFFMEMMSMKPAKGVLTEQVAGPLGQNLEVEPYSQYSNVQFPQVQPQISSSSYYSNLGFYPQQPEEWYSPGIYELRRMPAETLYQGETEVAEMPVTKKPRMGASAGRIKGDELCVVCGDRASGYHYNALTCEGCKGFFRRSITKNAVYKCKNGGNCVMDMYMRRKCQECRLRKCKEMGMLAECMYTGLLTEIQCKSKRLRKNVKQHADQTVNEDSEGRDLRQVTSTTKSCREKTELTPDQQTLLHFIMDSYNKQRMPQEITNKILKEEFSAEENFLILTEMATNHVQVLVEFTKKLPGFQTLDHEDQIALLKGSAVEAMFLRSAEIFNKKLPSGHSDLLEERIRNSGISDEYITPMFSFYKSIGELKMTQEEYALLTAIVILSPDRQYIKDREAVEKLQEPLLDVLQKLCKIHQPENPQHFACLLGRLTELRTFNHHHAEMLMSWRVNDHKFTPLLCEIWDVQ
T1 sequence (P19793 1-462 partner): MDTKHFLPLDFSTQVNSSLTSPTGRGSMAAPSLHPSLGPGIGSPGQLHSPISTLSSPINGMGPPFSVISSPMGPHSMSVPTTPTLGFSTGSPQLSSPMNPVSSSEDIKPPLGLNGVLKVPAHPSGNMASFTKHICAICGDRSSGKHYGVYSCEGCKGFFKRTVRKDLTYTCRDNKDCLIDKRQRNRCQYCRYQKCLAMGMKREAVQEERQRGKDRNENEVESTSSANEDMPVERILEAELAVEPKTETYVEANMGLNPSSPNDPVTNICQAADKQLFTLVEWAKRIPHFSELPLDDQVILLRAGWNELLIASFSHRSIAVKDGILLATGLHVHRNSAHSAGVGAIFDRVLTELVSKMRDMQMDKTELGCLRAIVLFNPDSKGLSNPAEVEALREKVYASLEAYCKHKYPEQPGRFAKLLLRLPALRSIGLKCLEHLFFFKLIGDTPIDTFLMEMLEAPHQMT
In short: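 CV-1 cells in charcoal-stripped FBS were transiently co-transfected with full-length human FXR, RXR, an ECRE×6-luciferase reporter, β-gal and YFP plasmids. Transfected cells were reseeded onto half-log compound dilutions and incubated 18 h. Luciferase luminescence was read after lysis, and EC50 was determined.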

FXR [2] = molecular target: T1, FXR; assay: In Vitro FXR Assay (TK): TK-ECRE-luc reporter in transfected CV-1 cells; assay type: cell-based; conditions: CV-1 cells transfected with hFXR, hRXR, 18 h incubation, luminescence
In short: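 Luciferase read-out from lysed CV-1 cells exposed 18 h to DMSO-diluted compounds. Cells had been transfected overnight with expression plasmids for hFXR and hRXR plus TK-ECRE-luc reporter and pCMX-YFP, grown in charcoal-stripped serum at 37 °C, 5% CO2.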

SMILES: COC(=O)/C=C/c1cccc(N(Cc2cccc3ccccc23)C(=O)C2CCCCC2)c1 [compound 80, (E)-Methyl 3-(3-(N-(naphthalen-1-ylmethyl)cyclohexanecarboxamido)phenyl) acrylate]
- Cmpd/Fex (ratio of the EC50 for the test compound relative to the EC50 of the Fexaramine control) (FXR [1]): + (‘+’ means Cmpd/Fex > 100)
- EC50 (FXR [2]): > 10 µM

SMILES: COC(=O)/C=C/c1cccc(N(Cc2ccc(-c3cnn(C)c3)cc2)C(=O)C2CCCCC2)c1 [compound 28, (E)-Methyl 3-(3-(N-(4-(1-methyl-1H-pyrazol-4-yl)benzyl)cyclohexanecarboxamido)phenyl)acrylate]
- Cmpd/Fex (ratio of the EC50 for the test compound relative to the EC50 of the Fexaramine control) (FXR [1]): ++ (‘++’ means Cmpd/Fex > 10 & < 100)
- EC50 (FXR [2]): 1 to 10 µM

SMILES: COC(=O)/C=C/c1cccc(N(Cc2ccc(-c3ccc(OC)cc3F)cc2)C(=O)C2CCCCC2)c1 [compound 33, (E)-Methyl 3-(3-(N-((2′-fluoro-4′-methoxy-[1,1′-biphenyl]-4-yl)methyl)cyclohexanecarboxamido)phenyl)acrylate]
- Cmpd/Fex (ratio of the EC50 for the test compound relative to the EC50 of the Fexaramine control) (FXR [1]): ++ (‘++’ means Cmpd/Fex > 10 & < 100)
- EC50 (FXR [2]): 1 to 10 µM

SMILES: CN(C)c1ccc(-c2ccc(CN(C(=O)C3CCCCC3)c3cccc(/C=C/C(=O)OCCO)c3)cc2)cc1 [compound 86, (E)-2-Hydroxyethyl 3-(3-(N-((4′-(dimethylamino)-[1,1′-biphenyl]-4-yl)methyl)cyclohexanecarboxamido)phenyl) acrylate]
- Cmpd/Fex (ratio of the EC50 for the test compound relative to the EC50 of the Fexaramine control) (FXR [1]): +++ (‘+++’ means Cmpd/Fex < 10)
- EC50 (FXR [2]): 1 to 10 µM

SMILES: COC(=O)/C=C/c1cccc(N(Cc2ccc(-c3cccc(N(C)C)c3)cc2)C(=O)C2CCCCC2)c1 [compound 37, (E)-Methyl 3-(3-(N-((3′-(dimethylamino)-[1,1′-biphenyl]-4-yl)methyl)cyclohexanecarboxamido)phenyl) acrylate]
- Cmpd/Fex (ratio of the EC50 for the test compound relative to the EC50 of the Fexaramine control) (FXR [1]): ++ (‘++’ means Cmpd/Fex > 10 & < 100)
- EC50 (FXR [2]): 1 to 10 µM

SMILES: COC(=O)/C=C/c1cccc(N(Cc2cccc(-c3ccccc3)c2)C(=O)C2CCCCC2)c1 [compound 82, (E)-Methyl 3-(3-(N-([1,1′-biphenyl]-3-ylmethyl)cyclohexanecarboxamido)phenyl) acrylate]
- Cmpd/Fex (ratio of the EC50 for the test compound relative to the EC50 of the Fexaramine control) (FXR [1]): + (‘+’ means Cmpd/Fex > 100)
- EC50 (FXR [2]): > 10 µM

SMILES: COC(=O)/C=C/c1cccc(N(Cc2ccc(-c3ccc(N(C)C)cc3)cc2)C(=O)C2CCC2)c1 [compound 15, (E)-Methyl 3-(3-(N-((4′-(dimethylamino)-[1,1′-biphenyl]-4-yl)methyl)cyclobutanecarboxamido)phenyl) acrylate]
- Cmpd/Fex (ratio of the EC50 for the test compound relative to the EC50 of the Fexaramine control) (FXR [1]): +++ (‘+++’ means Cmpd/Fex < 10)
- EC50 (FXR [2]): 1 to 10 µM

SMILES: COC(=O)/C=C/c1cccc(N(Cc2ccc(-c3ccc4c(ccn4C)c3)cc2)C(=O)C2CCCCC2)c1 [compound 62, (E)-Methyl 3-(3-(N-(4-(1-methyl-1H-indol-5-yl)benzyl)cyclohexanecarboxamido)phenyl) acrylate]
- Cmpd/Fex (ratio of the EC50 for the test compound relative to the EC50 of the Fexaramine control) (FXR [1]): +++ (‘+++’ means Cmpd/Fex < 10)
- EC50 (FXR [2]): ≤ 1 µM

SMILES: COC(=O)/C=C/c1cccc(N(Cc2ccc(-c3cccc(C(C)C)c3)cc2)C(=O)C2CCCCC2)c1 [compound 47, (E)-Methyl 3-(3-(N-((3′-isopropyl-[1,1′-biphenyl]-4-yl)methyl)cyclohexanecarboxamido)phenyl) acrylate]
- Cmpd/Fex (ratio of the EC50 for the test compound relative to the EC50 of the Fexaramine control) (FXR [1]): + (‘+’ means Cmpd/Fex > 100)
- EC50 (FXR [2]): > 10 µM

SMILES: COC(=O)CCc1ccc(C)c(N(Cc2ccc(-c3ccc(N(C)C)cc3)cc2)C(=O)C2CCCCC2)c1 [compound 93, Methyl 3-(3-(N-((4′-(dimethylamino)-[1,1′-biphenyl]-4-yl)methyl)cyclohexanecarboxamido)-4-methylphenyl)propanoate]
- Cmpd/Fex (ratio of the EC50 for the test compound relative to the EC50 of the Fexaramine control) (FXR [1]): ++ (‘++’ means Cmpd/Fex > 10 & < 100)
- EC50 (FXR [2]): > 10 µM

SMILES: COC(=O)/C=C/c1cccc(N(Cc2ccc(C3CCCCC3)cc2)C(=O)C2CCCCC2)c1 [compound 13, (E)-methyl 3-(3-(N-(4-cyclohexylbenzyl)cyclohexanecarboxamido)phenyl)acrylate]
- Cmpd/Fex (ratio of the EC50 for the test compound relative to the EC50 of the Fexaramine control) (FXR [1]): + (‘+’ means Cmpd/Fex > 100)
- EC50 (FXR [2]): > 10 µM

SMILES: COC(=O)/C=C/c1cccc(N(Cc2ccc(-c3ccc(N(C)C)cc3)cc2)C(=O)C23CC4CC(CC(C4)C2)C3)c1 [compound 12, (E)-Methyl 3-(3-(-N-((4′-(dimethylamino)-[1,1′-biphenyl]-4-yl)methyl)adamantane-1-carboxamido)phenyl)acrylate]
- Cmpd/Fex (ratio of the EC50 for the test compound relative to the EC50 of the Fexaramine control) (FXR [1]): +++ (‘+++’ means Cmpd/Fex < 10)
- EC50 (FXR [2]): 1 to 10 µM

SMILES: COC(=O)/C=C/c1cccc(N(Cc2ccc(-c3c(F)cccc3F)cc2)C(=O)C2CCCCC2)c1 [compound 59, (E)-Methyl 3-(3-(N-((2′,6′-difluoro-[1,1′-biphenyl]-4-yl)methyl)cyclohexanecarboxamido)phenyl) acrylate]
- Cmpd/Fex (ratio of the EC50 for the test compound relative to the EC50 of the Fexaramine control) (FXR [1]): + (‘+’ means Cmpd/Fex > 100)
- EC50 (FXR [2]): 1 to 10 µM

SMILES: COC(=O)CCc1cccc(N(Cc2ccc(-c3ccc(N(C)C)cc3)cc2)C(=O)C2CCCCC2)c1 [compound 43, Methyl 3-(3-(N-((4′-(dimethylamino)-[1,1′-biphenyl]-4-yl)methyl)cyclohexanecarboxamido)phenyl) propanoate]
- Cmpd/Fex (ratio of the EC50 for the test compound relative to the EC50 of the Fexaramine control) (FXR [1]): ++ (‘++’ means Cmpd/Fex > 10 & < 100)
- EC50 (FXR [2]): 1 to 10 µM

SMILES: COC(=O)/C=C/c1cccc(N(Cc2ccc(-c3cccc(F)c3)cc2)C(=O)C2CCCCC2)c1 [compound 26, (E)-Methyl 3-(3-(N-((3′-fluoro-[1,1′-biphenyl]-4-yl)methyl)cyclohexanecarboxamido)phenyl)acrylate]
- Cmpd/Fex (ratio of the EC50 for the test compound relative to the EC50 of the Fexaramine control) (FXR [1]): +++ (‘+++’ means Cmpd/Fex < 10)
- EC50 (FXR [2]): 1 to 10 µM

SMILES: COC/C=C/c1cccc(N(Cc2ccc(-c3ccc(N(C)C)cc3)cc2)C(=O)C2CCCCC2)c1 [compound 44, (E)-N-((4′-(Dimethylamino)-[1,1′-biphenyl]-4-yl)methyl)-N-(3-(3-methoxyprop-1-en-1-yl)phenyl)cyclohexanecarboxamide]
- Cmpd/Fex (ratio of the EC50 for the test compound relative to the EC50 of the Fexaramine control) (FXR [1]): +++ (‘+++’ means Cmpd/Fex < 10)
- EC50 (FXR [2]): 1 to 10 µM

SMILES: C=C(C)c1ccc(-c2ccc(CN(C(=O)C3CCCCC3)c3cccc(/C=C/C(=O)OC)c3)cc2)cc1 [compound 71, (E)-Methyl 3-(3-(N-((4′-(prop-1-en-2-yl)-[1,1′-biphenyl]-4-yl)methyl)cyclohexanecarboxamido)phenyl) acrylate]
- Cmpd/Fex (ratio of the EC50 for the test compound relative to the EC50 of the Fexaramine control) (FXR [1]): +++ (‘+++’ means Cmpd/Fex < 10)
- EC50 (FXR [2]): 1 to 10 µM

SMILES: COC(=O)/C=C/c1cccc(N(Cc2ccc(-c3ccc(N(C)C)c(C#N)c3)cc2)C(=O)C2CCCCC2)c1 [compound 72, (E)-Methyl 3-(3-(N-((3′-cyano-4′-(dimethylamino)-[1,1′-biphenyl]-4-yl)methyl)cyclohexanecarboxamido)phenyl) acrylate]
- Cmpd/Fex (ratio of the EC50 for the test compound relative to the EC50 of the Fexaramine control) (FXR [1]): +++ (‘+++’ means Cmpd/Fex < 10)
- EC50 (FXR [2]): ≤ 1 µM

SMILES: COC(=O)/C=C/c1cccc(N(Cc2ccc(-c3ccc(N(C)C)cc3)cc2)C(=O)[C@H]2CC[C@@H](O)CC2)c1 [compound 18, cis-(E)-Methyl 3-(3-(N-((4′-(dimethylamino)-[1,1′-biphenyl]-4-yl)methyl)-4-hydroxycyclohexanecarboxamido)phenyl)acrylate]
- Cmpd/Fex (ratio of the EC50 for the test compound relative to the EC50 of the Fexaramine control) (FXR [1]): +++ (‘+++’ means Cmpd/Fex < 10)
- EC50 (FXR [2]): ≤ 1 µM
